Assay results: patent US4965280A, “Antifungal carbinols” (E. I. Du Pont de Nemours and Company, priority 1989, dated 1990)
In brackets after ≈: the same amount, converted by molar mass.

What was measured:
Venturia inaequalis = experiment: Example A apple scab; format: in vivo; details: 100 PPM, read-out: disease control rating, Ex. A
Procedure, shortened: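 Apple seedlings receive a run-off spray of compound suspended at 100 or 20 ppm. The spray liquid is purified water holding 250 ppm TREM 014, a polyhydric alcohol ester surfactant, plus acetone at 6% of final volume as the solvent.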

[1] = test system: Erysiphe graminis f. sp. tritici; experiment: Example D wheat powdery mildew; format: in vivo; details: Blumeria graminis, 144 h; 100 PPM; read-out: disease control rating, Ex. D
Procedure, shortened: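 Wheat seedlings receive a run-off foliar spray of compound suspended in purified water at 100 or 20 ppm. The carrier holds 250 ppm TREM 014 plus acetone amounting to 6% of final volume.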

Rhizoctonia solani [2] = experiment: Example F rice sheath blight; format: in vivo; details: Rhizoctonia solani, 144 h, 100 PPM; read-out: disease control rating, Ex. F
Procedure, shortened: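 Rice seedlings receive a run-off spray of compound suspended at 100 or 20 ppm. The carrier is purified water containing 250 ppm of a polyhydric alcohol ester surfactant, with acetone making up 6% of the final volume.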

Phytophthora infestans = experiment: whole plant or invertebrate; format: in vivo; details: Phytophthora infestans, in Solanum lycopersicum, read-out: disease control rating, Ex. H, 100 PPM
Plasmorpara viticola = experiment: Example I grape downy mildew; format: in vivo; details: read-out: disease control rating, Ex. I
Procedure, shortened: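 First, each compound is taken up in acetone amounting to 6% of the final volume. It is then suspended in purified water containing 250 ppm of the polyhydric alcohol ester surfactant TREM 014, at 100 or 20 ppm. Finally, the suspension is sprayed onto grape seedlings until run-off.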

Pythium aphanadermatum = experiment: Example J cucumber damping off; format: in vivo; design: key to phytotoxicity entry, Ex. J: P: disease control was not measured due to phytoxicity; details: 5 kg/ha; for pest or weed control at 5000 g/ha: Pythium, 336 h, read-out: disease control rating, Ex. J
Procedure, shortened: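 Seeds and soil were inoculated with a mix of sand, cereal and Pythium aphanadermatum mycelium, the fungus responsible for cucumber damping off. They were kept in a growth chamber at 30° C. for 14 days, and disease was then rated to assess control.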

Rhizoctonia solani [3] = experiment: Example K cotton blight; format: in vivo; details: 336 h, 5 kg/ha, read-out: disease control rating, Ex. K
Method: […] Seeds and soil were then inoculated with a mixture of sand, cereal and mycelium of the fungus Rhizoctonia solani, causal agent of cotton blight, and incubated in a growth chamber at 30° C. for 14 days. Disease ratings were then made.

[4] = test system: Candida albicans ATCC 11651; experiment: In vitro antifungal MIC, microtiter broth dilution; details: Candida albicans, ATCC11651, 24 h, read-out: MIC values, C. albicans, 30°, 24 hours
[5] = test system: Aspergillus fumigatus ATCC 28214; experiment: In vitro antifungal MIC, microtiter broth dilution; details: Aspergillus fumigatus, ATCC28214, 24 h, read-out: MIC values, A. fumigatus, 30°, 24 hours
[6] = test system: Fusarium oxysporum f. sp. cucumerinum; experiment: Example L cucumber wilt; format: in vivo; details: 336 h, 5 kg/ha, read-out: disease control rating, Ex. L
Method: […] Seeds and soil were then inoculated with a mixture of sand, cereal and mycelium of the fungus Fusarium oxysporum f. sp. cucumerinum, causal agent of cucumber wilt, and incubated in a growth chamber at 30° C. for 14 days. Disease ratings were then made.

ARROWHEAD = experiment: Test C rice paddy; format: in vivo, Sagittaria spp.; details: Sagittaria, 504 h, 21 days, read-out: plant response; for pest or weed control at 64 g/ha: 0064 G/HA; for pest or weed control at 125 g/ha: 0125 G/HA; for pest or weed control at 250 g/ha: 0250 G/HA; for pest or weed control at 500 g/ha: 0500 G/HA
Source text: (§1) Sixteen cm diameter Airlite plastic pots were partially filled with Tama slit loam soil and the soil saturated with water. Japonica and Indica rice seedlings a the 2.0 to 2.5 leaf stage were transplanted into 1/3 of the pots. Into another third of the pots were transplanted seedling or sprouted tubers of water plantain (Alisma trivale), Scripus (Scirpus paludosus), Cyperus (Cyperus esculentus), and arrowhead (Sagittaria spp.). The remaining pots were planted with barnyardgrass (Echinochloa crusgalli) seeds and sprouted tubes of water chestnut (Eleocharis spp.). These weeds all represent major rice weeds or genera of weeds important in rice. Three to four days after planting, the water level was raised to 3 cm (about 1200 ml/pot) and maintained a this level throughout the test. Chemical treatments were applied directly to the paddy water, within 24 hours of raising the water, after being formulated in a nonphytotoxic solvent. The pots were maintained in the greenhouse.

SCIRPUS = experiment: Test C rice paddy; format: in vivo, Scirpus paludosus; details: Bolboschoenus maritimus, 504 h, 21 days, read-out: plant response; for pest or weed control at 64 g/ha: 0064 G/HA; for pest or weed control at 125 g/ha: 0125 G/HA; for pest or weed control at 250 g/ha: 0250 G/HA; for pest or weed control at 500 g/ha: 0500 G/HA
Source text: as §1

YELLOW NUTSEDGE = experiment: Test C rice paddy; format: in vivo, Cyperus esculentus; details: 21 days
Source text: as §1

WATER PLAINTAIN = experiment: Test C rice paddy; format: in vivo, Alisma trivale; details: 504 h, 21 days, read-out: plant response; for pest or weed control at 64 g/ha: 0064 G/HA; for pest or weed control at 125 g/ha: 0125 G/HA; for pest or weed control at 250 g/ha: 0250 G/HA; for pest or weed control at 500 g/ha: 0500 G/HA
Source text: as §1

RICE JAP EFF = experiment: Test C rice paddy; format: in vivo, Japonica rice; details: Oryza sativa, 504 h, 21 days, read-out: plant response; for pest or weed control at 64 g/ha: 0064 G/HA; for pest or weed control at 125 g/ha: 0125 G/HA; for pest or weed control at 250 g/ha: 0250 G/HA; for pest or weed control at 500 g/ha: 0500 G/HA
Source text: as §1

RICE INDICA EFF = experiment: Test C rice paddy; format: in vivo; details: Oryza sativa, 504 h, 21 days, read-out: plant response; for pest or weed control at 64 g/ha: 0064 G/HA; for pest or weed control at 125 g/ha: 0125 G/HA; for pest or weed control at 250 g/ha: 0250 G/HA; for pest or weed control at 500 g/ha: 0500 G/HA
Source text: as §1

Compound | pest or weed control at 100 ppm (Venturia inaequalis) | pest or weed control at 100 ppm [1] | pest or weed control at 100 ppm (Rhizoctonia solani [2]) | pest or weed control at 100 ppm (Phytophthora infestans) | pest or weed control at 100 ppm (Plasmorpara viticola) | pest or weed control at 5000 g/ha (Pythium aphanadermatum) | pest or weed control at 5000 g/ha (Rhizoctonia solani [3]) | MIC [4] | MIC [5] | pest or weed control at 64 g/ha (ARROWHEAD) | pest or weed control at 125 g/ha (ARROWHEAD) | pest or weed control at 250 g/ha (ARROWHEAD) | pest or weed control at 500 g/ha (ARROWHEAD) | pest or weed control at 1000 g/ha (ARROWHEAD) | pest or weed control at 64 g/ha (SCIRPUS) | pest or weed control at 125 g/ha (SCIRPUS) | pest or weed control at 250 g/ha (SCIRPUS) | pest or weed control at 500 g/ha (SCIRPUS) | pest or weed control at 1000 g/ha (SCIRPUS) | plant response (YELLOW NUTSEDGE; 0064 G/HA) | other results
C=C(c1ccc(F)cc1)C(O)(Cn1cncn1)c1ccc(F)cc1F (centres unmarked) [Example 4, 2-(2,4-Difluorophenyl)-3-(4-fluorophenyl)-1-(1H-1,2,4-triazol-1-yl)-3-buten-2-ol] | 100% | 100% | 100% | 0% | 81% | 0% | 0% | 0.03 µg/mL (≈ 0.0869 µM) | 0.8 µg/mL (≈ 2.32 µM) |  |  |  |  |  |  |  |  |  |  |  | 
C=C(c1ccccc1)C(O)(Cn1cncn1)c1ccc(Cl)cc1 (centres unmarked) [Example 51, 2-(4-Chlorophenyl)-3-phenyl-1-(1H-1,2,4-triazol-1-yl)-3-buten-2-ol] | 100% | 100% | 100% | 0% | 0% |  |  | 0.03 µg/mL (≈ 0.0921 µM) | 3.2 µg/mL (≈ 9.82 µM) |  |  |  |  |  |  |  |  |  |  |  | phytotoxicity entry, Ex. J (Pythium aphanadermatum): P
C=C(c1ccccc1)C(O)(Cn1cncn1)c1ccc(F)cc1F (centres unmarked) [Example 52, 2-(2,4-Difluorophenyl)-3-phenyl-1-(1H-1,2,4-triazol-1-yl)-3-buten-2-ol] | 100% | 94% | 81% | 0% | 0% | 0% |  | 0.03 µg/mL (≈ 0.0916 µM) | 0.4 µg/mL (≈ 1.22 µM) |  |  |  |  |  |  |  |  |  |  |  | pest or weed control at 5000 g/ha [6]: 0%
C=C(c1ccc(Cl)cc1Cl)C(O)(Cn1cncn1)c1ccccc1F (centres unmarked) [Example 107] |  |  |  |  |  |  |  |  |  | 0% | 0% | 0% | 95% | 70% | 0% | 0% | 60% | 80% | 80% | 0 | plant response (YELLOW NUTSEDGE; 0125 G/HA): 0; plant response (YELLOW NUTSEDGE; 0250 G/HA): 50; plant response (YELLOW NUTSEDGE; 0500 G/HA): 30; plant response (YELLOW NUTSEDGE; 1000 G/HA): 95; pest or weed control at 64 g/ha (WATER PLAINTAIN): 0%; pest or weed control at 125 g/ha (WATER PLAINTAIN): 0%; pest or weed control at 250 g/ha (WATER PLAINTAIN): 0%; pest or weed control at 500 g/ha (WATER PLAINTAIN): 60%; pest or weed control at 1000 g/ha (WATER PLAINTAIN): 80%; pest or weed control at 64 g/ha (RICE JAP EFF): 0%; pest or weed control at 125 g/ha (RICE JAP EFF): 0%; pest or weed control at 250 g/ha (RICE JAP EFF): 30%; pest or weed control at 500 g/ha (RICE JAP EFF): 40%; pest or weed control at 1000 g/ha (RICE JAP EFF): 50%; pest or weed control at 64 g/ha (RICE INDICA EFF): 0%; pest or weed control at 125 g/ha (RICE INDICA EFF): 0%; pest or weed control at 250 g/ha (RICE INDICA EFF): 30%; pest or weed control at 500 g/ha (RICE INDICA EFF): 40%; pest or weed control at 1000 g/ha (RICE INDICA EFF): 50%
C=C(c1ccc(F)cc1)C(O)(Cn1cncn1)c1ccccc1F (centres unmarked) [Example 644] | 100% | 100% | 100% | 23% | 0% | 0% | 0% | 0.03 µg/mL (≈ 0.0916 µM) | 0.4 µg/mL (≈ 1.22 µM) |  |  |  |  |  |  |  |  |  |  |  | 
C=C(c1ccc(Cl)cc1)C(O)(Cn1cncn1)c1ccccc1F (centres unmarked) [Example 669] | 100% | 100% | 100% | 0% | 0% | 0% | 0% | 0.03 µg/mL (≈ 0.0873 µM) | 0.8 µg/mL (≈ 2.33 µM) | 0% | 0% | 0% | 0% | 0% | 0% | 0% | 0% | 0% | 30% | 0 | plant response (YELLOW NUTSEDGE; 0125 G/HA): 0; plant response (YELLOW NUTSEDGE; 0250 G/HA): 0; plant response (YELLOW NUTSEDGE; 0500 G/HA): 60; plant response (YELLOW NUTSEDGE; 1000 G/HA): 80; pest or weed control at 64 g/ha (WATER PLAINTAIN): 0%; pest or weed control at 125 g/ha (WATER PLAINTAIN): 0%; pest or weed control at 250 g/ha (WATER PLAINTAIN): 0%; pest or weed control at 500 g/ha (WATER PLAINTAIN): 0%; pest or weed control at 1000 g/ha (WATER PLAINTAIN): 0%; pest or weed control at 64 g/ha (RICE JAP EFF): 0%; pest or weed control at 125 g/ha (RICE JAP EFF): 0%; pest or weed control at 250 g/ha (RICE JAP EFF): 0%; pest or weed control at 500 g/ha (RICE JAP EFF): 0%; pest or weed control at 1000 g/ha (RICE JAP EFF): 0%; pest or weed control at 64 g/ha (RICE INDICA EFF): 0%; pest or weed control at 125 g/ha (RICE INDICA EFF): 0%; pest or weed control at 250 g/ha (RICE INDICA EFF): 0%; pest or weed control at 500 g/ha (RICE INDICA EFF): 0%; pest or weed control at 1000 g/ha (RICE INDICA EFF): 0%
